Data taken from US20190100790A1, “DETERMINATION OF NOTCH PATHWAY ACTIVITY USING UNIQUE COMBINATION OF TARGET GENES” (KONINKLIJKE PHILIPS N.V., priority 2017, published 2019).

System: Notch cellular signaling pathway
Assay: Notch pathway activity predicted by Bayesian network model from target gene expression, MOLT4 cell line (data set GSE6495)
Type: cell-based, human
Details: MOLT4 cells, 48 hours, 5 μM
Excerpt: Herein, an exemplary Bayesian network model as shown in FIG. 2 was used to model the transcriptional program of the Notch cellular signaling pathway in a simple manner. The model consists of three types of nodes: (a) a transcription factor (TF) element (with states “absent” and “present”) in a first layer 1; (b) target genes TG1, TG2, TGn (with states “down” and “up”) in a second layer 2, and; (c) measurement nodes linked to the expression levels of the target genes in a third layer 3. These can be microarray probesets PS1,1, PS1,2, PS1,3, PS2,1, PSn,1, PSn,m (with states “low” and “high”), as preferably used herein, but could also be other gene expression measurements such as RNAseq or RT-qPCR.
A suitable implementation of the mathematical model, herein, the exemplary Bayesian network model, is based on microarray data. The model describes (i) how the expression levels of the target genes depend on the activation of the TF element, and (ii) how probeset intensities, in turn, depend on the expression levels of the respective target genes. For the latter, probeset intensities may be taken from fRMA pre-processed Affymetrix HG-U133Plus2.0 microarrays, which are widely available from the Gene Expression Omnibus (GEO, www.ncbi.nlm.nih.gov/geo) and ArrayExpress (www.ebi.ac.uk/arrayexpress). […]

C[C@H](NC(=O)Cc1cc(F)cc(F)c1)C(=O)N[C@H](C(=O)OC(C)(C)C)c1ccccc1 [DAPT]
Notch cellular signaling pathway activity (odds that the TF element is present) (18 target genes shortlist model, vs untreated (FIG. 11)): decrease in Notch activity
Notch cellular signaling pathway activity (odds that the TF element is present) (26 target genes list model, vs untreated (FIG. 12)): decrease in Notch activity
